The subject of experiment [1] is 2-phenyl-1,4-benzoquinone-induced writhing. Nature of the experiment: 2-phenyl-1,4-benzoquinone-induced writhing test in mice (analgesic activity). In kind it is in vivo. Conditions: Mus musculus, sc, read-out: Inhibition in Writhing (%). An excerpt:
Compounds of the present invention are useful as analgesic agents due to their ability to alleviate pain in mammals. […] Exptl. Biol. Med. 95, 729 (1957)].

Experiment [2] concerns scopolamine induced memory deficit. Description: Dark Avoidance Assay (reversal of scopolamine induced memory deficit). In kind it is in vivo. Particulars: mice. The method, then:
This utility can also be ascertained by determining the ability of these compounds to restore cholinergically deficient memory in the Dark Avoidance Assay. In this assay mice are tested for their ability to remember an unpleasant stimulus for a period of 24 hours. A mouse is placed in a chamber that contains a dark compartment; a strong incandescent light drives it to the dark compartment, where an electric shock is administered through metal plates on the floor. The animal is removed from the testing apparatus and tested again, 24 hours later, for the ability to remember the electric shock.
If scopolamine, an anticholinergic that is known to cause memory impairment, is administered before an animal's initial exposure to the test chamber, the animal re-enters the dark compartment shortly after being placed in the test chamber 24 hours later. This effect of scopolamine is blocked by an active test compound, resulting in a greater interval before re-entry into the dark compartment.
The results for an active compound are expressed as the percent of a group of animals in which the effect of scopolamine is blocked, as manifested by an increased interval between being placed in the test chamber and re-entering the dark compartment.

[3] abbreviates: mice, dose 20 mg/kg of body wt., subcutaneous.

Where a name gives a salt, the structure may show the parent alone. Read-outs that look alike come from different tables or passages of the source.

For the compound `CN(C)c1cccc(CC(=O)C(F)(F)c2ccccc2)c1` [1,1-Difluoro-3-[3-(dimethylamino)phenyl-1-phenyl-2-propanone], the inhibition in vivo at 20 mg/kg in experiment [1] (setting [3]) was found to be 58%.

On to `CN(C)c1cccc(OCC(=O)Cc2cccc(Cl)c2)c1` [1-(3-Chlorophenyl)-3-[3-(dimethylamino)phenoxy]-2-propanone], for which, in experiment [1] (setting [3]), the inhibition in vivo at 20 mg/kg is 41%. On to `CN(C)c1cccc(CC(=O)Cc2cccc(Cl)c2)c1` [1-(3-Chlorophenyl)-3-[3-(dimethylamino)phenyl]-2-propanone], for which the inhibition in vivo at 20 mg/kg in experiment [1] (setting [3]) turned out to be 51%. On the same count and under the same terms, the result for `CN(C)c1ccc(C(=O)C(F)(F)c2ccccc2)cc1` [2,2-Difluoro-1-[4-(dimethylamino)phenyl]-2-phenylethanone] reads 67%; that for `CN(C)c1cccc(C(=O)COc2cccc(Cl)c2)c1` [2-(3-Chlorophenoxy)-1-[3-(dimethylamino)phenyl]ethanone], 69%. For `CN(C)c1cccc(C(=O)Cc2cccc(Cl)c2)c1.Cl` [2-(3-Chlorophenyl)-1-[3-(dimethylamino)phenyl]ethanone hydrochloride], the “% of animals with scopolamine induced memory deficit reversal” value in experiment [2] (dose 0.16 mg/kg, s.c.) worked out at 40%. Consider `CN(C)c1cccc(C(=O)C(F)(F)c2cccc(Cl)c2)c1` [2-(3-Chlorophenyl)-2,2-difluoro-1-[3-(dimethylamino)phenyl]ethanone hydrochloride], for which, in experiment [1], the inhibition in vivo at 20 mg/kg was 50%.

Regarding `CN(C)c1ccc(C(=O)C(F)c2cccc(Cl)c2)cc1` (centres unmarked) [2-(3-Chlorophenyl)-2-fluoro-1-[4-(dimethylamino)phenyl]ethanone], in experiment [1] (setting [3]), the inhibition in vivo at 20 mg/kg was 44%. For `CN(C)c1cccc(C(=O)C(F)(F)C(O)c2cccc(Cl)c2)c1` (centres unmarked) [3-(3-Chlorophenyl)-2,2-difluoro-3-hydroxy-1-[3-(dimethylamino)phenyl]propanone hydrochloride], the inhibition in vivo at 20 mg/kg in experiment [1] (setting [3]) was 63%.

For the compound `CNC(=O)Oc1ccc2c(c1)[C@]1(C)CCN(C)[C@@H]1N2C` [physostigmine, reference compound], in experiment [2] (dose 0.31 mg/kg, s.c. (reference)), the “% of animals with scopolamine induced memory deficit reversal” value came to 20%. `CCC(=O)O[C@](Cc1ccccc1)(c1ccccc1)[C@H](C)CN(C)C` [propoxyphene, reference compound]: the inhibition in vivo at 3.9 mg/kg in experiment [1] turned out to be 50%.
